Patent US10472341B2, “Bicyclic tetrahydrothiazepine derivatives useful for the treatment of neoplastic and/or infectious diseases” (APEIRON BIOLOGICS AG, priority 2015, dated 2019)
Where a name gives a salt, the structure may show the parent alone. Read-outs that look alike come from different tables or passages of the source.

Tests used:
non-stimulated PBMCs = assay: Non-stimulated PBMCs: cytokine secretion and signs of T-cell activation; assay type: cell-based, human
From the text: This is an important finding for compounds that shall selectively act on T cells which have been activated by presence of antigen from pathogens or tumors, but shall not lead to an unwanted general activation of all T cells of a patient.

[1] = test system: aCD3/aCD28-stimulated human CD4+-T-cells; assay: IL-2 production and activation markers in aCD3/aCD28 stimulated isolated human CD4+-T-cells; assay type: cell-based; conditions: IL-2 production at 3 μM compound
Procedure, shortened: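 CD4+ T cells isolated from buffy-coat PBMCs by microbeads were plated in Xvivo medium (1.5*10^5 cells/well) and stimulated with anti-CD3/28 mAbs plus compound. IL-2 measured by ELISA in supernatants at 24 h or 48 h; CD25 and proliferation by flow cytometry, CD69 at 24 h. Activity classes based on IL-2 at 3 μM compound.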

Splenocytes of BL6 mice = assay: Murine splenocytes stimulated with anti-CD3 and anti-CD28 antibodies: IL-2, CD25 on CD4 and CD8 T cells; assay type: cell-based, mouse; conditions: for production of cytokine: murine splenocytes stimulated with anti-CD3 and anti-CD28; for enhancement of cytokine production: unstimulated murine splenocytes
[2] = test system: aCD3/aCD28-stimulated human PBMCs; assay: Cytokine production in aCD3/aCD28 stimulated human PBMCs; assay type: cell-based; conditions: PBMC, 18 h
Procedure, shortened: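 Ficoll-isolated human PBMCs at 1e6 cells/mL in X-Vivo15, stimulated with soluble anti-CD3/CD28 (OKT3 and 28.2, 1 μg/mL each) plus compound for 18 h at 37° C. Supernatant cytokines quantified by MSD or HTRF.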

K562 leukemia cells = assay: Living tumor cells (K562) in the presence of NK cells; assay type: cell-based, human
Protocol: Isolated PBMCs, NK cells or CD8 positive cells were plated in Xvivo medium at 1.5*10^5 cells per in 96 well culture plates in the presence of 0.3*10^4 tumor cells where indicated. Cytokine secretion was determined by ELISA, immune cell activation (using Beckman-Coulter Abs CD25-PC5, CD69-PC7), cell viability and numbers by flow cytometry (Beckman-Coulter FC500 or Gallios) using 7-AAD exclusion as criterion for living cells. NK cells were isolated from PBMCs and were incubated with and without compounds, either alone or in co-culture with K562 leukemia cells.

[3] = enhancement of IFN-γ production, read-out: Activity Class IFN-γ
[4] = enhancement of IL-2 production, read-out: Activity Class IL-2

## N[C@H]1CS(=O)(=O)c2cc(F)c(C(=O)NC3CC3(F)F)cc2N(Cc2ccc(Cl)cc2)C1=O (stereo partly drawn) [Example 1, (3R)-3-amino-5-[(4-chlorophenyl)methyl]-N-(2,2-difluorocyclopropyl)-8-fluoro-1,1,4-trioxo-2,3,4,5-tetrahydro-1λ^6,5-benzothiazepine-7-carboxamide hydrochloride]
non-stimulated PBMCs
  cytokine secretion or other signs of T-cell activation: did not enhance cytokine secretion or other signs of T-cell activation
[1]
  Activity Class CD4+: A (IL-2 production at 3 μM compound concentration >10 ng/mL)
Splenocytes of BL6 mice; aCD3/28 stim, 0.3 μM
  CD25+ CD4 T cells: 7.48 % gated
  CD25+ CD8 T cells: 5.86 % gated
  IL-2 production: 0.29 ng/mL
Splenocytes of BL6 mice; aCD3/28 stim, 1 μM
  CD25+ CD4 T cells: 7.42 % gated
  CD25+ CD8 T cells: 7.17 % gated
  IL-2 production: 0.45 ng/mL
Splenocytes of BL6 mice; aCD3/28 stim, 3 μM
  CD25+ CD4 T cells: 9.19 % gated
  CD25+ CD8 T cells: 10.90 % gated
  IL-2 production: 0.61 ng/mL
Splenocytes of BL6 mice; aCD3/28 stim, 10 μM
  CD25+ CD4 T cells: 12.15 % gated
  CD25+ CD8 T cells: 15.76 % gated
  IL-2 production: 1.46 ng/mL
Splenocytes of BL6 mice; aCD3/28 stim, 30 μM
  CD25+ CD4 T cells: 12.01 % gated
  CD25+ CD8 T cells: 16.51 % gated
  IL-2 production: 1.71 ng/mL
Splenocytes of BL6 mice
  production of cytokine: strongly enhanced production of cytokine
  enhancement of cytokine production: such effect was not detected on unstimulated cells
Splenocytes of BL6 mice; unstim, 0.3 μM
  CD25+ CD4 T cells: 0.50 % gated
  CD25+ CD8 T cells: 0.61 % gated
  IL-2 production: 0.00 ng/mL
Splenocytes of BL6 mice; unstim, 1 μM
  CD25+ CD4 T cells: 0.50 % gated
  CD25+ CD8 T cells: 0.65 % gated
  IL-2 production: 0.00 ng/mL
Splenocytes of BL6 mice; unstim, 3 μM
  CD25+ CD4 T cells: 0.42 % gated
  CD25+ CD8 T cells: 0.61 % gated
  IL-2 production: 0.00 ng/mL
Splenocytes of BL6 mice; unstim, 10 μM
  CD25+ CD4 T cells: 0.41 % gated
  CD25+ CD8 T cells: 0.62 % gated
  IL-2 production: 0.00 ng/mL
Splenocytes of BL6 mice; unstim, 30 μM
  CD25+ CD4 T cells: 0.38 % gated
  CD25+ CD8 T cells: 0.56 % gated
  IL-2 production: 0.00 ng/mL
[2]; [3]
  EC50: < 1580 nM
[2]; [4]
  EC50: < 1580 nM

## CCCCNC(=O)c1ccc2c(c1)N(Cc1ccc(OC(F)(F)F)cc1)C(=O)[C@@H](N)CS2(=O)=O.Cl [Example 67, (3R)-3-amino-N-butyl-1,1,4-trioxo-5-{[4-(trifluoromethoxy)phenyl]methyl}-2,3,4,5-tetrahydro-1λ^6,5-benzothiazepine-7-carboxamide hydrochloride]
non-stimulated PBMCs
  cytokine secretion or other signs of T-cell activation: did not enhance cytokine secretion or other signs of T-cell activation
[1]
  Activity Class CD4+: A (IL-2 production at 3 μM compound concentration >10 ng/mL)
[2]; [3]
  EC50: < 1580 nM
[2]; [4]
  EC50: < 1580 nM
K562 leukemia cells; K562 only, 0.3 μM
  Living tumor cells: 22199.00
K562 leukemia cells; K562 only, 3 μM
  Living tumor cells: 20750.33
K562 leukemia cells; K562 only, 30 μM
  Living tumor cells: 22719.33
K562 leukemia cells; NK cells & K562, 0.01 μM
  Living tumor cells: 709.00
K562 leukemia cells; NK cells & K562, 0.03 μM
  Living tumor cells: 779.67
K562 leukemia cells; NK cells & K562, 0.1 μM
  Living tumor cells: 712.67
K562 leukemia cells; NK cells & K562, 0.3 μM
  Living tumor cells: 676.00
K562 leukemia cells; NK cells & K562, 1 μM
  Living tumor cells: 623.33
K562 leukemia cells; NK cells & K562, 3 μM
  Living tumor cells: 620.33
K562 leukemia cells; NK cells & K562, 10 μM
  Living tumor cells: 611.67
K562 leukemia cells; NK cells & K562, 30 μM
  Living tumor cells: 632.00

## Cl.N[C@H]1CS(=O)(=O)c2cc(F)c(C(=O)NCCCC(F)(F)F)cc2N(Cc2ccc(Cl)cc2)C1=O [Example 70, (3R)-3-amino-5-[(4-chlorophenyl)methyl]-8-fluoro-1,1,4-trioxo-N-(4,4,4-trifluoro-butyl)-2,3,4,5-tetrahydro-1λ^6,5-benzothiazepine-7-carboxamide hydrochloride]
[1]
  Activity Class CD4+: A (IL-2 production at 3 μM compound concentration >10 ng/mL)
Splenocytes of BL6 mice; aCD3/28 stim, 0.3 μM
  CD25+ CD4 T cells: 8.10 % gated
  CD25+ CD8 T cells: 10.10 % gated
  IL-2 production: 0.77 ng/mL
Splenocytes of BL6 mice; aCD3/28 stim, 1 μM
  CD25+ CD4 T cells: 9.28 % gated
  CD25+ CD8 T cells: 10.41 % gated
  IL-2 production: 0.91 ng/mL
Splenocytes of BL6 mice; aCD3/28 stim, 3 μM
  CD25+ CD4 T cells: 11.88 % gated
  CD25+ CD8 T cells: 14.58 % gated
  IL-2 production: 1.54 ng/mL
Splenocytes of BL6 mice; aCD3/28 stim, 10 μM
  CD25+ CD4 T cells: 13.41 % gated
  CD25+ CD8 T cells: 16.68 % gated
  IL-2 production: 1.90 ng/mL
Splenocytes of BL6 mice; aCD3/28 stim, 30 μM
  CD25+ CD4 T cells: 11.94 % gated
  CD25+ CD8 T cells: 17.50 % gated
  IL-2 production: 1.71 ng/mL
Splenocytes of BL6 mice
  production of cytokine: strongly enhanced production of cytokine
  enhancement of cytokine production: such effect was not detected on unstimulated cells
Splenocytes of BL6 mice; unstim, 0.3 μM
  CD25+ CD4 T cells: 0.55 % gated
  CD25+ CD8 T cells: 0.61 % gated
  IL-2 production: 0.00 ng/mL
Splenocytes of BL6 mice; unstim, 1 μM
  CD25+ CD4 T cells: 0.45 % gated
  CD25+ CD8 T cells: 0.65 % gated
  IL-2 production: 0.00 ng/mL
Splenocytes of BL6 mice; unstim, 3 μM
  CD25+ CD4 T cells: 0.48 % gated
  CD25+ CD8 T cells: 0.60 % gated
  IL-2 production: 0.00 ng/mL
Splenocytes of BL6 mice; unstim, 10 μM
  CD25+ CD4 T cells: 0.45 % gated
  CD25+ CD8 T cells: 0.60 % gated
  IL-2 production: 0.00 ng/mL
Splenocytes of BL6 mice; unstim, 30 μM
  CD25+ CD4 T cells: 0.47 % gated
  CD25+ CD8 T cells: 0.64 % gated
  IL-2 production: 0.00 ng/mL
[2]; [3]
  EC50: < 1580 nM
[2]; [4]
  EC50: < 1580 nM

## CC(C)NC(=O)c1cc2c(cc1F)S(=O)(=O)C[C@H](N)C(=O)N2Cc1ccc(Cl)cc1.Cl [Example 77, (3R)-3-amino-5-[(4-chlorophenyl)methyl]-8-fluoro-1,1,4-trioxo-N-(propan-2-yl)-2,3,4,5-tetrahydro-1λ^6,5-benzothiazepine-7-carboxamide hydrochloride]
non-stimulated PBMCs
  cytokine secretion or other signs of T-cell activation: did not enhance cytokine secretion or other signs of T-cell activation
[1]
  Activity Class CD4+: C (IL-2 production at 3 μM compound concentration between 2-fold increase as compared to mean IL-2 production of stimulated cells in the absence of compounds and <2 ng/mL)
[2]; [3]
  EC50: 1580 to 5010 nM
[2]; [4]
  EC50: 1580 to 5010 nM
K562 leukemia cells; K562 only, 0.3 μM
  Living tumor cells: 31786.33
K562 leukemia cells; K562 only, 3 μM
  Living tumor cells: 21495.00
K562 leukemia cells; K562 only, 30 μM
  Living tumor cells: 22503.00
K562 leukemia cells; NK cells & K562, 0.01 μM
  Living tumor cells: 696.00
K562 leukemia cells; NK cells & K562, 0.03 μM
  Living tumor cells: 636.00
K562 leukemia cells; NK cells & K562, 0.1 μM
  Living tumor cells: 567.00
K562 leukemia cells; NK cells & K562, 0.3 μM
  Living tumor cells: 589.00
K562 leukemia cells; NK cells & K562, 1 μM
  Living tumor cells: 520.33
K562 leukemia cells; NK cells & K562, 3 μM
  Living tumor cells: 406.33
K562 leukemia cells; NK cells & K562, 10 μM
  Living tumor cells: 398.33
K562 leukemia cells; NK cells & K562, 30 μM
  Living tumor cells: 408.33
